Data: publication PMC10974272, “Cytotoxic and Antiproliferative Activity of LASSBio-2208 and the Attempts to Determine Its Drug Metabolism and Pharmacokinetics In Vitro Profile” (Pharmaceuticals, 2024)
Read-outs that look alike come from different tables or passages of the source. Blank lines part the entries; values can stand above or below the compound they belong to.

Legend:
[1] = system: MOLT-4; assay: SRB cell viability/antiproliferative assay, MOLT-4; conditions: Homo sapiens, MOLT-4, 48 h
[2] = system: PC-3; assay: SRB cell viability/antiproliferative assay, PC-3; conditions: for Emax: SRB 48 h, PC-3, maximum effect at maximum concentration used
[3] = system: MCF-7; assay: SRB cell viability/antiproliferative assay, MCF-7; conditions: Homo sapiens, MCF7, 48 h
[4] = system: T lymphoblast cell line (MOLT-4); parameters: method as in PMID 37259357; conditions: cited from earlier work
[5] = system: human leukaemia cell line (CCRF-CEM); assay: MTT cell viability assay, CCRF-CEM
Description: (§8) After the incubation time, the plate was centrifuged (Universal centrifuge 320R Hettich, Kirchlengern, Germany) at 440× g, 10 min and 4 °C, then 110 µL of supernatant was removed and 10 µL of MTT solution was added and left to incubate for 3.5 h in the oven at 37 °C and 5% CO2. […] The CC50 was calculated using the GraphPad Prism 9.0 program. Each sample was tested in triplicate in three independent experiments (N3) [32, 33].

[6] = PAMPA—GIT; format: in vitro ADME; conditions: for Papp: PAMPA, read-out: Pe. Exp. GIT; for Classification GIT: by fraction absorbed
Description: (§1) To obtain information on the permeability potential of LASSBio-2208 on cell membranes, this derivative was tested using the parallel artificial membrane permeability assay (PAMPA) that is used as an in vitro model of passive diffusion and transcellular permeation. In this model, the permeability across two artificial membranes is measured: brain lipid from pig extract in dodecane (called PAMPA—BBB) and L-α soy phosphatidylcholine in dodecane (called PAMPA—TGI).
(§2) To perform the permeability assay we used a donor plate where the compounds (tests or controls) are diluted in a buffered medium, characterized by the presence of a synthetic membrane of polyvinylidene fluoride (PVDF) impregnated with a lipid solution, forming a barrier through which the compounds migrate through a diffusion process to the lower plate called the receptor.
(§3) The lipid mixture that impregnates the filter has a different constitution for the permeability tests for the blood–brain barrier (brain lipid from pig extract in dodecane) and gastrointestinal tract (L-α soy phosphatidylcholine in dodecane). In the PAMPA—BBB and PAMPA—GIT assays, the optical density values obtained in the reading at each selected wavelength, for each of the compounds were analysed in comparison with the values of several controls. In the case of the BBB, these values were used to elaborate an equation and determine the permeability coefficient (Pe), using a previously elaborated spreadsheet, and, for the PAMPA—GIT, these values were used to determine the absorbed fraction (Fa%), both using the Excel program. The permeability result for PAMPA—GIT classifies the compounds according to the percentage of absorbed fraction (Fa%), as follows: high intestinal permeability (70–100%), medium permeability (30–69%) or low permeability (0–29%), and the samples were diluted from a stock solution of 10 mM. The PAMPA—BBB model classifies the compounds only as follows: permeable (CNS+) or non-permeable (CNS−) and the assays were made from a stock solution of 1 mg for each compound [25, 40, 41, 42].

[7] = system: breast cancer cell line (MCF-7); parameters: method as in PMID 37259357; conditions: cited from earlier work
[8] = system: breast cancer cell line (MCF-7); assay: MTT cell viability assay, MCF-7
Description: as §8

[9] = system: human leukaemia cell line (CCRF-CEM); parameters: method as in PMID 37259357; conditions: cited from earlier work
[10] = system: human prostate cancer cell line (PC-3); parameters: method as in PMID 37259357; conditions: cited from earlier work
[11] = system: CCRF-CEM; assay: SRB cell viability/antiproliferative assay, CCRF-CEM; conditions: Homo sapiens, 48 h
[12] = PAMPA—BBB; format: in vitro ADME; parameters: key to Classification BBB: permeable (CNS+); non-permeable (CNS−)
Description: as §1, §2, §3

[13] = system: human prostate cancer cell line (PC-3); assay: MTT cell viability assay, PC-3; parameters: Emax: dose or concentration left out as unconfirmed
Description: as §8

[14] = system: T lymphoblast cell line (MOLT-4); assay: MTT cell viability assay, MOLT-4; conditions: Homo sapiens
Description: as §8

[15] = Non-specific microsome protein binding; format: in vitro ADME; conditions: rat, pH 7.4; liver microsomes 0.5 mg protein/mL, 37 °C, 60 min; read-out: Percentage of ƒu(mic) (unbound fraction in nonspecific microsomal binding)
Description: Once such bonds are formed, the bound fraction would become incapable of being metabolized.
Liver microsomes were diluted with PBS pH 7.4 to a concentration of 0.5 mg protein/mL and 3 µL at 1 mM of the working test compound and solutions were mixed with 357 µL of liver microsome suspension. After mixing, duplicate 200 µL aliquots were immediately removed, while another microtubule acted as the control sample (T 0 h), and were quenched with 400 µL of cold acetonitrile containing analytical internal standards. The other samples were incubated at 37 °C at 100 rpm, for 60 min with the same subsequent treatment.

[16] = system: human peripheral blood mononuclear cells (hPBMC); assay: PBMC viability assay by MTT; format: cell-based; conditions: MTT 48 h, human PBMC; maximum cytotoxic response at 100 µM
Description: (§4) The SI indicates how selective a compound is for a tumour cell line compared with a non-tumour cell line.
(§5) Human peripheral blood mononuclear cells (PBMCs) were used to determine the selectivity index (SI) and were obtained from healthy volunteers under a protocol approved by the Ethics Committee CAAE: 38257914.7.0000.5259. Immortalized cells were also obtained from the Rio de Janeiro Cell Bank (BCRJ).
(§6) First, 8 mL of blood from each healthy donor (3 people) was collected in a tube with EDTA in a 1:20 ratio to prevent the blood from clotting. In a 15 mL Falcon tube containing 4 mL of Ficoll-Paque, the 8 mL of blood collected was slowly added, letting it fall down the walls of the tube. It was centrifuged (Universal Centrifuge 320R Hettich) for 40 min at 750× g at 21 °C with acceleration 1 and brake 0. After centrifugation, in order to extract the ring of mononuclear cells, the supernatant above it was first carefully discarded so as not to disturb the ring. The ring was then slowly removed and placed in another 15 mL Falcon tube to which pure RPMI-1640 medium was added in a 1:1 ratio and centrifuged for 10 min at 580× g and 21 °C with acceleration 8 and brake 9 [34, 35].
(§7) The supernatant was discarded, and the pellet was resuspended in 1 mL of RPMI-1640 medium supplemented with 10% SBF and 1% antibiotic. An amount of 20 µL of cells were taken from the mixture and added to 380 µL of trypan blue dye for counting in the Neubauer chamber. Considering that 80% of PBMCs are lymphocytes and the rest are monocytes, the cells were plated with the aim of having 10^5 cell/well.

[17] = PBMC viability assay by MTT; format: cell-based, human; conditions: MTT 48 h, non-tumour human PBMC
Description: as §4, §5, §6, §7

SMILES: CN(C)C1CCN(C(=O)c2ccc(NC(=O)Nc3ccc(-c4nc(N5CCOCC5)nc(N5CCOCC5)n4)cc3)cc2)CC1 [Gedatolisib, gedatolisib]
- CC50 [1]: 3.68 µM
- Emax [1]: 69.2%
- CC50 ([2]; Homo sapiens, PC-3, 48 h): 6.16 µM
- Emax ([2]; Homo sapiens, PC-3, 48 h): > 50%
- CC50 [3]: 0.03 µM
- Emax [3]: 95.7%
- CC50 [4]: 0.02 µM
- CC50 ([5]; 24 h): 0.31 µM
- Emax ([5]; 24 h): 98.6%
- CC50 ([5]; 48 h): 0.085 µM
- Emax ([5]; 48 h): 99.5%
- CC50 ([5]; 72 h): 0.09 µM
- Emax ([5]; 72 h): 100%
- Fraction Absorbed [6]: 48.4%
- Papp [6]: 1.74 ×10⁻⁶ cm/s
- CC50 [7]: 0.07 µM
- CC50 ([8]; Homo sapiens, MCF7, 24 h): 5.04 µM
- Emax ([8]; Homo sapiens, MCF7, 24 h): 79.9%
- CC50 ([8]; Homo sapiens, MCF7, 48 h): 0.21 µM
- Emax ([8]; Homo sapiens, MCF7, 48 h): 96.8%
- CC50 ([8]; Homo sapiens, MCF7, 72 h): 0.06 µM
- CC50 [9]: 0.03 µM
- CC50 [10]: 0.54 µM
- CC50 [11]: 0.78 µM
- Emax [11]: 66.2%
- Classification BBB [12]: Insoluble
- Pe. Exp. BBB [12]: Insoluble
- Pe. Exp. BBB ([12]; listed as gedatolisib): insoluble
- CC50 ([13]; Homo sapiens, 24 h): > 100 µM
- Emax ([13]; Homo sapiens, 24 h): 48%
- CC50 ([13]; Homo sapiens, 48 h): 5.05 µM
- Emax ([13]; Homo sapiens, 48 h): 60.5%
- CC50 ([13]; Homo sapiens, 72 h): 0.86 µM
- Emax ([13]; Homo sapiens, 72 h): 81.1%
- CC50 ([14]; MOLT-4, 24 h): 0.35 µM
- Emax ([14]; MOLT-4, 24 h): 97.2%
- CC50 ([14]; MOLT-4, 48 h): 0.08 µM
- Emax ([14]; MOLT-4, 48 h): 99.3%
- CC50 ([14]; MOLT-4, 72 h): 0.07 µM
- fraction unbound at 60 min, 8.3 µM [15]: 0.503

- Fraction Absorbed [6]: 52.93%
- Papp [6]: 1.98 ×10⁻⁶ cm/s
- Classification GIT [6]: Medium (medium permeability (30–69%))
- Classification GIT ([6]; listed as tubastatin A): medium
- Fraction Absorbed ([6]; listed as tubastatin A): 52.9%
- Classification BBB [12]: CNS+
- Papp ([12]; read-out: Pe. Exp. BBB): 5.54 ×10⁻⁶ cm/s
- fraction unbound at 60 min, 8.3 µM [15]: 0.131
SMILES: CN1CCc2c(c3ccccc3n2Cc2ccc(C(=O)NO)cc2)C1 [Tubastatin A, tubastatin A]
- CC50 [1]: 10.5 µM
- Emax [1]: 54.4%
- CC50 ([2]; Homo sapiens, PC-3, 48 h): > 100 µM
- Emax ([2]; Homo sapiens, PC-3, 48 h): < 35%
- Emax [2]: 39.3%
- CC50 [3]: 66 µM
- Emax ([3]; SRB 48 h, MCF-7, maximum effect at maximum concentration used): > 70%
- CC50 ([5]; 24 h): 12.5 µM
- Emax ([5]; 24 h): 95.8%
- CC50 ([5]; 48 h): 9.38 µM
- Emax ([5]; 48 h): 99.1%
- CC50 ([5]; 72 h): 7.11 µM
- Emax ([5]; 72 h): 99.3%
- CC50 ([8]; Homo sapiens, MCF7, 24 h): > 100 µM
- Emax ([8]; Homo sapiens, MCF7, 24 h): 40.1%
- CC50 ([8]; Homo sapiens, MCF7, 48 h): > 100 µM
- Emax ([8]; Homo sapiens, MCF7, 48 h): 48.2%
- CC50 ([8]; Homo sapiens, MCF7, 72 h): 83.6 µM
- Emax ([8]; Homo sapiens, MCF7, 72 h): 56.8%
- CC50 ([8]; MTT 24 h, MCF-7): did not show any cytotoxic activity
- CC50 [11]: 9.69 µM
- Emax [11]: 69.5%
- CC50 ([13]; Homo sapiens, 24 h): > 100 µM
- Emax ([13]; Homo sapiens, 24 h): 41.8%
- CC50 ([13]; Homo sapiens, 48 h): 65.9 µM
- Emax ([13]; Homo sapiens, 48 h): 67.8%
- CC50 ([13]; Homo sapiens, 72 h): 34.9 µM
- Emax ([13]; Homo sapiens, 72 h): 83.6%
- CC50 ([13]; MTT 24 h, PC-3): did not show any cytotoxic activity
- Emax ([14]; MOLT-4, 24 h): 94.6%
- CC50 ([14]; MOLT-4, 48 h): 7.5 µM
- Emax ([14]; MOLT-4, 48 h): 98.2%
- Emax ([14]; MOLT-4, 72 h): 98.7%
- Emax [16]: 58.2%
- CC50 at 48 h [17]: 85.7 µM
